Measured values taken from patent US11767303B2, “Compounds and methods for inhibiting viral replication and methods of treating and preventing flaviviral infections” (priority 2020, dated 2023).
Like-named read-outs stand apart in the source and are kept apart here.

Columns and labels:
[1] = WST-8 cell proliferation cytotoxicity assay; format: cell-based, human; conditions: human
Description: (§1) Cytotoxicity Assay. […] All experiments were performed in triplicates.
(§2) To address this concern, next the compound cytotoxicity CC50 was measured using a WST-8 cell proliferation assay, as described previously.

[2] = target: T1, DENV2 NS2B-NS3 interaction (Dengue virus type 2, UniProt P29990); test: Split luciferase complementation (SLC) NS2B-NS3 interaction assay; format: binding, Dengue virus serotype 2; conditions: concentration reducing 50% of SLC signal; read-out: IC50-SLC-(DN2)
T1 construct: GST (N); made in house
T1 sequence (P29990 1476-1654): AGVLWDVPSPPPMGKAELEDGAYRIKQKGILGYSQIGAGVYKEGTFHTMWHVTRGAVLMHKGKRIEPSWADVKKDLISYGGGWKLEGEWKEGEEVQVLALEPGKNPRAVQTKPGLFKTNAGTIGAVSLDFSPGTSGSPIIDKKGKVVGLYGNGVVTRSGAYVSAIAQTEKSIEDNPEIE

DENV2 NS2B-NS3 protease = target: T2, DENV2 NS2B-NS3 protease (Dengue virus type 2, UniProt P29990); test: Protease inhibition assay (FRET peptide substrate); format: biochemical, Dengue virus serotype 2
T2 construct: made in house
T2 sequence (P29990 1476-1654): as above
Description: Protease Inhibition Assay. The protease inhibition assay was performed using the refolded DENV2 NS3 fusion protein (50 nM) and a fluorescence resonance energy transfer (FRET) peptide substrate (100 μM) (Abz-RRRRSAG-nTyr (NeoBiolab)), as described previously. […] 13:e1006411 (2017); and Lang et al., “Analysis of Protein-Protein Interactions by Split Luciferase Complementation Assay,” Curr. Protoc. Toxicol. 82:e (2019), all of which are hereby incorporated by reference in their entirety. Substrate cleavage was monitored at excitation/emission wavelengths of 360 nm/420 nm (Abz substrate) by a BioTek Flx800. The rate of increase in relative fluorescence unit (RFU) over time was calculated in the linear range and normalized as a percent of the DMSO control. The IC50/CC50/EC50 was determined by fitting the dose-responsive curve with a non-linear regression function using the GraphPad Prism 8 (San Diego, Calif.). All experiments were performed in triplicates.
Next, the inhibition efficacy of these positive derivatives were evaluated against the viral NS2B-NS3 protease function as previously described. […] Previously, two versions of the NS3 protease were generated, the NS3 protease domain refolded from inclusion bodies and a soluble version of the NS3 protease domain fused to maltose-binding protein (MBP). […]

ZIKV = test: Viral titer reduction assay, ZIKV in A549 cells; format: cell-based, Zika virus
Description: Viral Titer Reduction Assay. A viral titer reduction assay was used to determine the compounds' effect on DENV2 and ZIKV strains, as described previously. […] Human A549 lung carcinoma cells and human primary neural progenitor cells were used, as described previously. […] All experiments were performed in triplicates.

DENV2 = test: Viral titer (plaque) reduction assay, DENV2 in A549 cells; format: cell-based, Dengue virus serotype 2
Description: Viral Titer Reduction Assay. A viral titer reduction assay was used to determine the compounds' effect on DENV2 and ZIKV strains, as described previously. […] Human A549 lung carcinoma cells and human primary neural progenitor cells were used, as described previously. […] 13:e1006411 (2017), which are hereby incorporated by reference in their entirety. All experiments were performed in triplicates.
A viral plaque reduction assay was performed next to evaluate the antiviral efficacy of these derivatives. Human lung carcinoma A549 cells were infected with DENV2 in the presence of a concentration series of derivatives or a dimethyl sulfoxide (DMSO) control, and viral titers were measured at 48 hrs post-infection, as described previously.

Aqueous solubility = format: physicochemical
A549 cells = test: WST-8 cell proliferation cytotoxicity assay; format: cell-based, human; conditions: Table 4, preliminary SAR, A549 cells; read-out: CC50
Description: as §1, §2

[3] = not told
[4] = Pharmacokinetics in B6 mice after oral gavage
Excerpt: Pharmacokinetics. […] Fan et al., “Contributions of Hepatic and Intestinal Metabolism to the Disposition of Niclosamide, a Repurposed Drug with Poor Bioavailability,” Drug Metab. Dispos. 47:756-763 (2019), which is hereby incorporated by reference in its entirety. […] Student's t-test was used. P values<0.05 were considered statistically significant.

DENV2 replicon = DENV2 replicon assay in BHK-21 cells (Renilla luciferase); format: cell-based, Dengue virus serotype 2; conditions: Dengue virus, BHK-21 replicon cells, 48 hours, read-out: EC50-DN2 (DENV2 replicon)
Description: DENV2 Replicon Assay. […] The cells were incubated at 37° C. in a humidified incubator with 5% CO2 for hrs in a 100 μl medium containing Minimal Essential Medium (MEM) supplemented with 10% fetal bovine serum (FBS), 100 I.U./ml penicillin, 100 g/ml streptomycin, and 300 μg/ml G418. Upon 24 hrs incubation, culture medium was discarded. Fresh culture medium of 100 μl with a concentration series of compounds or DMSO control was added to the cells in triplicates. The culture was further incubated for 48 hours. The cells were then washed twice with 100 μl phosphate-buffered saline (PBS), followed by addition of 25 μl of a lysis buffer containing 1×PBS and 1% Triton X-100. The mixture was incubated at room temperature with gentle shaking (50 rpm) for 30 minutes. Assay buffer (125 μl) containing 1×PBS, 0.05% (3-((3-cholamidopropyl) dimethylammonio)-1-propanesulfonate) (CHAPS), and 0.1% BSA was then added to each well. In the meantime, a fresh 4× working substrate coelenterazine was prepared by diluting 1 μl of stock coelenterazine (2.4 mM) dissolved in ethanol into 10 ml assay buffer (10,000-fold dilution). […] The luminescence was recorded immediately using the Veritas luminometer. The luminescence data was normalized to DMSO control. The EC50 was determined by nonlinear regression fitting of normalized experimental data in GraphPad Prism 8.0 (San Diego, Calif.). […]

in vitro = conditions: not told, Perme. (cell permeability)
[5] = A549 cells, read-out: CC50 (A549)
[6] = refolded NS3, read-out: IC50-pro (DN2)
[7] = Zika virus, A549, read-out: EC50-ZK (A549)
[8] = Dengue virus, DENV2, A549 cells, 48 hrs post-infection, read-out: EC50-DN2 (A549)
[9] = Zika virus, A549, read-out: EC50-ZK
[10] = Dengue virus, DENV2, Table 4, preliminary SAR, A549 cells, read-out: EC50-DN2
[11] = Table 4, preliminary SAR, read-out: IC50-pro(DN2)
[12] = Table 4, preliminary SAR, A549 cells, read-out: EC50-ZK
[13] = Table 4, preliminary SAR, A549 cells, read-out: EC50-DN2
[14] = female, B6, mouse, in vivo, po, 40 mg/kg

SMILES	CC50 [1, 5]	IC50 [2]	IC50 (DENV2 NS2B-NS3 protease; [6])	EC50 (ZIKV; [7])	EC50 (DENV2; [8])	logP (LogP)	EC50 (ZIKV; [9])	EC50 (DENV2; [10])	also measured
O=C(Nc1ccc([N+](=O)[O-])cc1Cl)c1cc(Cl)ccc1OCCN1CCOCC1 [HJC0114]	> 200 µM	18.4 µM	33.6 µM	> 30 µM	> 30 µM	–	–	–	–
O=C(Nc1ccc([N+](=O)[O-])cc1Cl)c1cc(Cl)ccc1OC1CCNCC1 [HJC0125]	50.2 µM	16.3 µM	44.5 µM	0.15 µM	0.21 µM	–	–	–	–
Nc1ccc(NC(=O)c2cc(Cl)ccc2O)c(Cl)c1 [HJC0129]	176 µM	9.6 µM	11.3 µM	> 30 µM	> 30 µM	2.76	> 30 µM	> 30 µM	–
CC(=O)Nc1ccc(NC(=O)c2cc(Cl)ccc2O)c(Cl)c1 [HJC0140]	–	–	–	> 30 µM	> 30 µM	2.47	> 30 µM	> 30 µM	–
O=C(Nc1ccc2c(c1)S(=O)(=O)C=C2)c1cc(Cl)ccc1O [HJC0149]	241 µM	18.6 µM	20.3 µM	1.1 µM	0.9 µM	2.41	1.1 µM	0.9 µM	–
NCCCOc1ccc(Cl)cc1C(=O)Nc1ccc([N+](=O)[O-])cc1Cl [HJC0308]	17.7 µM	4.9 µM	39.7 µM	6.2 µM	1.4 µM	–	–	–	–
CN1CCN(CCOc2ccc(Cl)cc2C(=O)Nc2ccc([N+](=O)[O-])cc2Cl)CC1 [HJC0365]	177 µM	13.2 µM	> 60 µM	6 µM	6.4 µM	–	–	–	–
CN1CCC(Oc2ccc(Cl)cc2C(=O)Nc2ccc([N+](=O)[O-])cc2Cl)CC1 [HJC0381]	91.1 µM	10.8 µM	25.9 µM	3.9 µM	1.2 µM	2.38	3.9 µM	1.2 µM	aqueous solubility (Aqueous solubility): significantly improves the aqueous solubility
CC[C@H](N)COc1ccc(Cl)cc1C(=O)Nc1ccc([N+](=O)[O-])cc1Cl [HJC0390]	30.1 µM	6 µM	46.5 µM	< 0.1 µM	0.43 µM	–	–	–	–
NCCCCOc1ccc(Cl)cc1C(=O)Nc1ccc([N+](=O)[O-])cc1Cl [HJC0431]	28.4 µM	3.1 µM	34 µM	0.36 µM	2.2 µM	3.9	0.36 µM	2.2 µM	aqueous solubility (Aqueous solubility): significantly improves the aqueous solubility
O=C(NC(Cc1ccccc1)C(=O)Nc1ccc([N+](=O)[O-])cc1Cl)c1cc(Cl)ccc1O (stereo not drawn) [JMX0285]	–	–	–	–	–	3.84	–	–	CC50 (A549 cells): 16.5 µM; Perme. (cell permeability) [3]: 0.25 ×10⁻⁶ cm/s; IC50 (DENV2 NS2B-NS3 protease; [11]): 5.7 µM; EC50 (ZIKV; [12]): 0.3 µM; EC50 (DENV2; [13]): 0.48 µM
O=C(Nc1ccc(C(F)(F)F)cc1Cl)c1cc(Cl)ccc1O [JMX0308]	–	–	–	–	–	4.49	–	–	Perme. (cell permeability) [3]: 0.27 ×10⁻⁶ cm/s; EC50 (ZIKV; [12]): 0.12 µM; EC50 (DENV2; [13]): 0.09 µM
O=C(Nc1cc(F)cc(C(F)(F)F)c1)c1cccc([N+](=O)[O-])c1O [JMX0317]	–	–	–	–	–	3.26	–	–	CC50 (A549 cells): 20.4 µM; Perme. (cell permeability) [3]: 2.9 ×10⁻⁶ cm/s; IC50 (DENV2 NS2B-NS3 protease; [11]): 8.4 µM; EC50 (ZIKV; [12]): 0.12 µM; EC50 (DENV2; [13]): 0.2 µM
CC(=O)Oc1ccccc1C(=O)Nc1ncc([N+](=O)[O-])s1 [NTZ, nitazoxanide, reference compound]	–	–	–	–	–	–	–	0.3 µM	CC50 [1]: 77 µM; EC50 (ZIKV; Zika virus, Table 4, preliminary SAR, A549 cells, read-out: EC50-ZK): 1.5 µM; logP (physchem): 2.14
O=C(Nc1ccc([N+](=O)[O-])cc1Cl)c1cc(Cl)ccc1O [Niclosamide, reference compound]	–	2 µM	–	0.48 µM	–	–	0.48 µM	–	CC50 (A549 cells): 4.8 µM; T1/2 ± S.D. ([4]; B6 mice, single oral dose 40 mg/kg, plasma): 4.6 ± 1.0 h; AUC0→∞ ± S.D. [4, 14]: 3.5 ± 0.8; Cmax [4, 14]: 600 nM; Tmax ± S.D. [4, 14]: 0.7 ± 0.4 h; EC50 (DENV2 replicon): 2 µM; logP (physchem): 3.38; EC50 (DENV2; Dengue virus, DENV2, A549, 48 h, read-out: EC50-DN2 (A549)): 0.55 µM; Papp (in vitro): 0.25 ×10⁻⁶ cm/s
